Source: patent US9120787B2, “HIV replication inhibitors” (priority 2011, dated 2015)
“And” between values parts separate entries of the source, which are not always exact repeats. Identical values can stand only once. Like-named read-outs stand apart in the source and are kept apart here.

What was measured:
[1] = Cytotoxicity by MTS staining in uninfected MAGI-CCR5 cells; type: cell-based; settings: human, read-out: TC50
Outline: (§1)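 Uninfected MAGI-CCR5 cells (HeLa-CD4-LTR-β-gal derived, expressing CD4/CCR5) plated at 1.0×10^4 cells/well the day before, then exposed to compounds at six concentrations in triplicate alongside parallel infected assays. Viability read by MTS staining.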

HIV-1Ba-L [2] = test: HIV-1Ba-L replication in PBMCs (supernatant RT end-point)
Outline: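 Pooled PHA-stimulated human PBMCs (5×10^4 cells/well) were infected with HIV-1Ba-L at MOI 0.1 with nine ½-log compound dilutions and cultured seven days at 37° C. Supernatant RT activity was measured by ^3H-TTP incorporation on poly rA:oligo dT (60 minutes, 37° C) and counted by scintillation.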

HIV-1Ba-L [3] = test: Inhibition of virus replication in MAGI-CCR5 cells (β-galactosidase reporter); type: cell-based; settings: HIV-1Ba-L in MAGI-CCR5 cells; for IC50: 48 hours, β-galactosidase reporter expression, read-out: IC50
Outline: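 HeLa-derived MAGI-CCR5 cells (high CD4/CCR5, HIV-1 LTR-driven β-galactosidase) plated at 1.0×10^4 cells/well the day before infection with HIV-1Ba-L. Compounds tested at six concentrations in triplicate, with parallel uninfected plates for cytotoxicity.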

[4] = target: T1, recombinant HIVNL4-3 heterodimeric (p66/p51) Reverse Transcriptase (Human immunodeficiency virus type 1 group M subtype B, UniProt P12497); test: Biochemical reverse transcriptase assay; parameters: species or system HIV-1; settings: 5'LTR/dPR IC50, HIV RT biochemical assay, 5'LTR template/primer
T1 construct: Purified recombinant HIVNL4-3 heterodimeric (p66/p51) Reverse Transcriptase (RT)
Protocol: Enantiomers of Example 34 were created and utilized to assess the activity of the compounds in a biochemical reverse transcriptase assay. Purified recombinant HIVNL4-3 heterodimeric (p66/p51) Reverse Transcriptase (RT) was used in experiments. RT activity was determined by the incorporation of radiolabeled deoxyribonucleotides into the newly synthesized DNA strand. The standard RT reaction mixture contained a synthetic homopolymeric template/primer [poly(rA)/oligo(dT)] or in vitro transcribed viral RNA derived from the HIV-1NL4-3 5′-LTR region (nucleotide residues 454 to 652) and a primer complementary to the primer binding site (PBS, nucleotide residues 636 to 652), radiolabeled deoxyribonucleotide, dNTPs and RT. The reaction was carried out in a volume of 40 μl containing 50 mM Tris HCl, pH 7.8, 50 mM KCl, 5 mM MgCl2, 1 mM DTT, 50 μM each of dATP, dCTP, dGTP, 50 nM dTTP, 1 μCi of [^3H] dTTP (70-90 Ci/mM) and 5 nM template/primer. The reaction was initiated by the addition of 10 nM RT. For compound screening, serially diluted test articles were added to the reaction followed by the addition of RT. The reaction mixture was incubated at 37° C. for 1 h, then quenched by the addition of ice-cold trichloroacetic acid (TCA) to the final concentration of 10%. The plate was incubated at 4° C. for 1 h to precipitate the synthesized DNA, then rinsed 3-times with 10% TCA and 1 time with 70% ethanol. After addition of 25 μl scintillation fluid to completely dried wells, radioactivity is counted by MicroBeta scintillation counter. The reduction of radioactivity represents the potency of compound inhibition.

[5] = Cytotoxicity by MTS staining in PBMCs; type: cell-based; settings: human, peripheral blood mononuclear cells (PBMC), read-out: TC50
Protocol: (§2) Cytotoxicity was assessed by MTS staining. At assay end-point, PBMC were stained with the addition of […] of the soluble tetrazolium-based dye MTS to determine cell viability and quantify compound toxicity. The plates were incubated 4 to 6 hrs at 37° C. Following incubation, the activity was assessed by reading absorbance values at 490/650 nm.

HIV-1 K103N, Y181C (A17) = HIV-1 K103N, Y181C (A17) replication in PBMCs; type: cell-based
From the text: In another embodiment of the present disclosure compounds are provided which inhibit the replication of HIV strains resistant to NNRTIs. Compounds in this disclosure inhibit, A17, an HIV-1 virus with mutations in the RT non-nucleoside binding pocket, K103N and Y181C, in a dose-dependent susceptibility testing manner.
The asparagine variation at residue 103 and the cysteine variation at residue 181 are known to inhibit the activity of the NNRTI's.
Evaluation Dihydropyrimidines vs. HIV-1Ba-L and HIV-1 K103N, Y181C in PBMCs

MAGI-CCR5 cells = test: Cytotoxicity by MTS staining in uninfected MAGI-CCR5 cells; type: cell-based; settings: 48 hours, read-out: TC50 (the source's name)
Outline: as §1

[6] = tested on: peripheral blood mononuclear cells (PBMC); test: Cytotoxicity by MTS staining in PBMCs; type: cell-based; settings: read-out: TC50 (the source's name)
Protocol: as §2

[7] = Human immunodeficiency virus 1, PBMC, 168 h
[8] = Human immunodeficiency virus 1, BAL, PBMC
[9] = Virus Ba-L in PBMCs (Ba-L vs A17 comparison)
[10] = Human immunodeficiency virus 1, PBMC
[11] = Virus A17 (K103N, Y181C) in PBMCs

SMILES	CC50 at 48 h [1]	TI (TC50/IC50) (HIV-1Ba-L [2]; HIV-1Ba-L in PBMCs)	IC50 (HIV-1Ba-L [2]; [7])	TI (TC50/IC50) (HIV-1Ba-L [3])	IC50 (HIV-1Ba-L [3]; Human immunodeficiency virus 1)	IC50 [4]	CC50 at 7 days ([5]; MTS staining)	IC50 (HIV-1Ba-L [2]; [8])	TI (TC50/IC50) (HIV-1Ba-L [2]; [9])	CC50 at 7 days ([5]; A17 line of the table)	CC50 at 7 days ([5]; Ba-L line of the table)	IC50 (HIV-1 K103N, Y181C (A17); [10])	TI (TC50/IC50) (HIV-1 K103N, Y181C (A17); [11])	also measured
CC1=C(c2nc(-c3ccc(C#N)cc3)cs2)C(c2cccc(O)c2)NC(=O)N1 (centres unmarked) [Example 34]	≥ 100 µM	A (A = TI (TC50/IC50) ≧100.0)	< 1 µM	A (A = TI (TC50/IC50) ≧ 100.0)	< 1 µM	< 1 µM	50 to 100 µM							
CC1=C(c2nc(-c3ccc(C#N)cc3)cs2)C(c2cc3ccccc3n2C)NC(=O)N1 (centres unmarked) [Example 11]	≥ 100 µM	A (A = TI (TC50/IC50) ≧100.0)	< 1 µM	A (A = TI (TC50/IC50) ≧ 100.0)	< 1 µM		≥ 100 µM	< 1 µM	A (A = TI (TC50/IC50) ≧ 100.0)	≥ 100 µM	≥ 100 µM	> 100 µM	D (D < 10.0)	effect of RT changes K103N and Y181C on anti-viral activity (HIV-1 K103N, Y181C (A17); virus with K103 to Asparagine and Y181 to cysteine): inhibit the anti-viral activity
CC1=C(c2nc(-c3ccc(C#N)cc3C)cs2)C(c2cccnc2F)NC(=O)N1 (centres unmarked) [Example 86]		A (A = TI (TC50/IC50) ≧100.0)	< 1 µM	A (A = TI (TC50/IC50) ≧ 100.0)			≥ 100 µM	< 1 µM	A (A = TI (TC50/IC50) ≧ 100.0)	≥ 100 µM	≥ 100 µM	5 to 100 µM	D (D < 10.0)	CC50 (MAGI-CCR5 cells): ≥ 100 µM; IC50 (HIV-1Ba-L [3]): < 1 µM
CC1=C(c2nc(-c3ccc(C#N)cc3C)cs2)C(c2cc3ccccc3n2C)NC(=O)N1 (centres unmarked) [Example 87]	≥ 100 µM	A (A = TI (TC50/IC50) ≧100.0)	< 1 µM	A (A = TI (TC50/IC50) ≧ 100.0)	< 1 µM		≥ 100 µM	< 1 µM	A (A = TI (TC50/IC50) ≧ 100.0)	≥ 100 µM	≥ 100 µM	5 to 100 µM	C (C < 50.0-10.0)	
Cc1ccnc2c1NC(=O)c1cccnc1N2C1CC1 [Nevirapine]						0.29 µM and 0.19 µM								
CC1=C(c2nc(-c3ccc(C#N)cc3)cs2)C(c2cc3ccccc3[nH]2)NC(=O)N1 (centres unmarked) [Example 10]	< 50 µM	C (C < 50.0-10.0)	1 to 5 µM	C (C < 50.0 to 10.0)	1 to 5 µM		50 to 100 µM	1 to 5 µM	B (B < 100.0-50.0)	≥ 100 µM	≥ 100 µM	5 to 100 µM	D (D < 10.0)	
Cc1cc(C#N)cc(C)c1Oc1nc(Nc2ccc(C#N)cc2)nc(N)c1Br [TMC-125, Etravirine, reference compound]	> 100 µM	>325.0		>37,500.0	0.003 µM	0.19 µM	> 1 µM		>402.0	> 1 µM	> 1 µM	0.01 µM	>101.0	
Cc1cn([C@H]2C[C@H](N=[N+]=[N-])[C@@H](CO)O2)c(=O)[nH]c1=O [AZT, reference compound]		>54.9		>36.5					>88.6				>629.0	CC50 (MAGI-CCR5 cells): > 1 µM; IC50 (HIV-1Ba-L [2]; HIV-1Ba-L in PBMCs, seven days, RT end-point): 0.02 µM; IC50 (HIV-1Ba-L [2]; [9]): 0.011 µM; IC50 (HIV-1Ba-L [3]): 0.08 µM; CC50 ([6]; A17 line of the table): > 1 µM; CC50 ([6]; Ba-L line of the table): > 1 µM; CC50 ([6]; MTS staining): > 1 µM; IC50 (HIV-1 K103N, Y181C (A17); Virus A17 (K103N, Y181C) in PBMCs, read-out: IC50): 0.0016 µM
